Reference: US20130178616A1, “USE OF MODIFIED OLIGO-B-(1,3)-GLUCANES FOR TREATING DISEASES OF THE IMMUNE SYSTEM OLIGO-B-(1,3V-GLUCANE-(1,3)-MANNOSE, OLIGO-B-(1,3)-GLUCANE-(1,3)-MANNITOL AND DERIVATIVES THEREOF, METHODS FOR PREPARING THE SAME AND DRUGS CONTAINING THEM” (ASE & BIO., priority 2006, published 2013)

How the values were obtained:
Type in all cases: in vivo, Balb/c mice
[1] = tested on: peripheral blood cells; experiment: Phagocytosis of HEMA particles by peripheral blood cells after injection of the oligosaccharide; settings: 100 μg/mouse by peritoneal route, 24 hours after injection, control PBS, cells with at least three HEMA particles positive, FIG. 1
Description: (§1) The control used is PBS. The dosages used are 100 μg/mouse.
(§2) One or other of a control, LAM5, LAM7, A0 or A2O were injected, by peritoneal route, into a group of Balb/c mice (Jackson laboratory, Bar Harbor, Me., USA). 24 hours after the injection the mice were sacrificed. The peripheral blood was recovered from the orbital plexus in heparin (5 IU/ml) (Sigma).
After counting, a test for phagocytosis of HEMA particles (synthetic microspheres prepared from 2-hydroxyethylmethacrylate copolymer) was carried out as described in: Rembaum et al., 1976, Vetvicka et al. 1982, Bilej et al., 1989. 0.1 ml of heparinized fresh blood was added to 0.05 ml of diluted HEMA particles (5×10^8/ml) and incubated for 60 minutes at 37° C. under occasional moderate stirring.
At the end of the incubation, the cell suspension was smeared onto microscope slides. The smears were evaluated under an optical microscope after Giemsa staining.
Cells surrounding at least three particles were considered to be positive.

[2] = tested on: peritoneal cells; experiment: Phagocytosis of HEMA particles by cells obtained from the peritoneal cavity after injection of the oligosaccharide; settings: 100 μg/mouse intraperitoneal, after 24 hours, control PBS, cells with at least six HEMA particles positive, FIG. 2
Description: as §1
One or other of a control, LAM7, LAM5, A0 or A2 were injected, by intraperitoneal route, into a group of Balb/c mice (Jackson laboratory, Bar Harbor, Me., USA).
After 24 hours, the mice were sacrificed, the peritoneal cells were collected in a Hanks medium (Sigma).
After counting of the cells in a haemocytometer, the peritoneal cells were diluted to 1×10^7 in an RPMI 1640 medium (Sigma) with 5% foetal calf serum (Hyclone, Logan, Utah, USA). 2×10^6 cells in 0.2 ml of RPMI 1640 medium with 5% foetal calf serum added were mixed with the same volume of HEMA particles (5×10^8/ml).
The suspension was incubated for 60 minutes at 37° C. under occasional moderate stirring. The incubation was stopped by centrifugation (150 g for 5 minutes) and the pellet was replaced in suspension.
The macrophages with ingested particles were counted under an optical microscope in smears stained with Accustain (modified Wright stain, Sigma).
The cells surrounding at least six particles were considered as being positive.

[3] = tested on: peripheral blood cells; experiment: Differential count in the blood; settings: 100 μg/mouse, same groups as Example 8; Giemsa staining; control PBS; FIG. 3
Description: as §1, §2
By using the same experimental groups as in Example 8, two additional microscope slides were prepared from each experimental sample. After Giemsa staining, the presence of individual types of cells i.e. monocytes, lymphocytes and granulocytes were evaluated for each slide with an optical microscope.

[4] = tested on: peritoneal cells; experiment: Differential count in the peritoneal cells; settings: 100 μg/mouse, same groups as Example 8; Giemsa staining; control PBS; FIG. 4
Description: as §1
By using the same experimental groups as in Example 8, two additional microscope slides of each experimental sample were prepared. After Giemsa staining, the presence of individual types of cells i.e. macrophages, lymphocytes and mastocytes were evaluated for each slide with an optical microscope.

Structure (SMILES): OC[C@H]1O[C@@H](O[C@@H]2[C@@H](O)[C@H](O[C@@H]3[C@@H](O)[C@H](O[C@@H]4[C@@H](O)[C@H](O[C@@H]5[C@@H](O)[C@H](O[C@@H]6[C@H](O)[C@H](O)O[C@H](CO)[C@H]6O)O[C@H](CO)[C@H]5O)O[C@H](CO)[C@H]4O)O[C@H](CO)[C@H]3O)O[C@H](CO)[C@H]2O)[C@H](O)[C@@H](O)[C@@H]1O [Product A2, β-D-glucopyranosyl-(1→3)-β-D-glucopyranosyl-(1→3)-β-D-glucopyranosyl-(1→3)-β-D-glucopyranosyl-(1→3)-β-D-glucopyranosyl-(1→3)-β-D-mannopyranose]
- phagocytosis in the granulocytes [1]: strongly stimulate phagocytosis
- phagocytosis in the monocytes [1]: strongly stimulate phagocytosis
- phagocytosis in the granulocytes of peritoneal macrophages [2]: strongly stimulate phagocytosis
- phagocytosis in the monocytes of peritoneal macrophages [2]: strongly stimulate phagocytosis
- number of granulocytes in the peripheral blood [3]: increase the number
- number of monocytes in the peripheral blood [3]: increase the number
- number of granulocytes in the peritoneal cavity [4]: increase the number
- number of monocytes in the peritoneal cavity [4]: increase the number
